Source: patent publication US10836792B2, “Retro-inverso peptide inhibitors of cell migration, extracellular matrix and endothelial invasion by tumor cells” (ISTITUTO NAZIONALE TUMORI IRCCS “FONDAZIONE G. PASCALE”, priority 2016, dated 2020)
Non-standard residues stand in square brackets, D forms with d. Residues, ends and D or L forms follow the SMILES beside them. Aib = CC(C)(N)C(=O)O

Legend:
[1] = system: ovarian carcinoma SKOV-3 cells; experiment: Matrigel invasion (xCELLigence RTCA), SKOV-3; type: cell-based, human; conditions: 10 nM, 20 hrs
Method: (§1) FIG. 8 At the concentration of 10 nM the retro-inverso peptide RI-3 prevents matrigel invasion of tumor cells from human osteosarcoma Saos-2 (A), chondrosarcoma Sarc (B), melanoma A375 (C), metastatic melanoma A375M6 (D), ovarian carcinoma SKOV-3 cells (E), or primary ovarian cancer cells derived from a tumor excision (OV-53) (F), as monitored in real-time for 20 hr as changes in cell index by the xCELLigence RTCA system (Example 8).
(§2) To investigate the ability of RI-3 to prevents matrigel invasion of tumor cells form different tissue origins, human osteosarcoma Saos-2 (A), chondrosarcoma Sarc (B) melanoma A375 (C), metastatic melanoma A375M6 (D), ovarian carcinoma SKOV-3 cells (E) or primary ovarian cancer cells derived from a tumor excision (OV-53) (F) were seeded on polymerized matrigel and allowed to invade matrigel in the absence (None) or in the presence of 10 nM RI-3. Cell invasion was monitored in real-time for 20 hrs as changes in cell index by the xCELLigence RTCA system. Data represent mean±SD from quadruplicate experiments. All cell lines were able to cross matrigel, although to a different extent. In all case RI-3 reduced matrigel invasion by about 30%, 31%, 64%, 57%, 53% and 68%, of Saos-2, Sarc, A375, A375M6, SKOV-3 and OV-53 cells, respectively.

melanoma A375 [2] = experiment: Trans-endothelial migration through HUVEC monolayer (xCELLigence RTCA), A375; type: cell-based, human; conditions: 10 nM, 5 hrs
Method: (§3) FIG. 9 At the concentration of 10 nM the retro-inverso peptide RI-3 affects trans-endothelial migration of human chondrosarcoma Sarc (A), melanoma A375 (B), ovarian carcinoma SKOV-3 (C) cells, or THP1 monocytes (D), as monitored by the xCELLigence RTCA system (Example 9).
(§4) The entry of tumor cells into bloodstream is one of the earliest events of the metastatic process. The ability of RI-3 to affect trans-endothelial migration of human chondrosarcoma Sarc (A) melanoma A375 (B), ovarian carcinoma SKOV-3 (C) cells, or THP1 monocytes (D) was monitored by the xCELLigence RTCA system. Human Umbilical Vein Endothelial Cells (HUVEC) (1×10^4 cells/well) suspended in growth medium, were allowed to grow for 20-25 hrs until they form a confluent monolayer, prior to seeding Sarc, A375, SKOV-3, or THP-1 cells (1×10^4 cells/well) in growth medium in the absence (None) or in the presence of 10 nM RI-3. The experiments were performed twice in quadruplicate. When cells cross the endothelial monolayer, there is a drop in electrical resistance which is monitored in real-time for 5 hrs as the cell index changes due to the rupture of endothelial monolayer. All cell lines were able to reduce endothelial monolayer integrity. The addition of 10 nM RI-3 inhibited the capability of Sarc, A375, SKOV-3, and THP-1 cells to disrupt endothelial monolayers by 17%, 22%, 58%, and 36% respectively.

melanoma A375 [3] = experiment: Matrigel invasion (xCELLigence RTCA), A375; type: cell-based, human; conditions: 10 nM, 20 hrs
Method: as §1, §2

[4] = system: metastatic melanoma A375M6; experiment: Matrigel invasion (xCELLigence RTCA), A375M6; type: cell-based, human; conditions: 10 nM, 20 hrs
Method: as §1, §2

[5] = system: human chondrosarcoma Sarc; experiment: Trans-endothelial migration through HUVEC monolayer (xCELLigence RTCA), Sarc; type: cell-based; conditions: 10 nM, 5 hrs
Method: as §3, §4

ovarian carcinoma SKOV-3 = experiment: Trans-endothelial migration through HUVEC monolayer (xCELLigence RTCA), SKOV-3; type: cell-based, human; conditions: 10 nM, 5 hrs
Method: as §3, §4

[6] = system: primary ovarian cancer cells derived from a tumor excision (OV-53); experiment: Matrigel invasion (xCELLigence RTCA), OV-53; type: cell-based, human; conditions: 10 nM, 20 hrs
Method: as §1, §2

THP1 monocytes = experiment: Trans-endothelial migration through HUVEC monolayer (xCELLigence RTCA), THP-1; type: cell-based, human; conditions: 10 nM, 5 hrs
Method: as §3, §4

HT1080 cells = experiment: FBS-directed migration of HT1080 cells in Boyden chambers; type: cell-based, human; conditions: 10 nM peptide, 10% FBS, 4 hrs
Method: FIG. 4 Retro-inverso peptides inhibit FBS-directed migration of HT1080 cells in a dose dependent manner (Example 4).
To assess whether retro-inverso peptides exert some effect on directional cell migration, HT1080 cells were allowed to migrate for 4 hrs in Boyden chambers toward serum-free medium (CTRL), 10% FBS (None) or 10% FBS mixed with peptides, each tested at 10 nM concentration. For quantitative analysis, the basal values assessed in the absence of FBS (CTRL) was taken as 100% and all values were reported relative to that. Data are the means±SD of two independent experiments, performed in triplicate. Statistical significance calculated against None with *p<0.01, **p<0.001 (A). All retro-inverso peptides caused a reduction of FBS-directed cell migration although to different extent. Peptides RI-1, RI-2, RI-3, RI-4 and RI-5 reduced by 49%, 46%, 65%, 9% and 6%, respectively, the extent of FBS-directed cell migration. Similar results were obtained when, HT1080 cell migration was monitored in real time for 18 hrs at 37° C., 5% CO2 by the xCELLigence system. Data represent mean±SD from a quadruplicate experiment representative of 2 replicates (B). Then, HT1080 cells were allowed to migrate in Boyden chambers toward 10% FBS plus increasing concentrations of RI-3, and data were expressed as a percentage of cells migrated toward FBS alone (100%) Inhibitory effect of RI-3 is dose-dependent, it starts in the high fM range, it seems to level off in the nM range and reaches an overall 50% reduction at 1×10^−13M (C).

FPR1 = molecular target: T1, FPR1 (Homo sapiens, UniProt P21462); experiment: Agonist-dependent FPR1 internalization in RBL-2H3/ETFR cells (microscopy); type: cell-based; conditions: binding experiments at 37° C., FITC-fMLF
T1 construct: expressed in transfected cells; host or cells: rat basophilic leukaemia RBL-2H3/ETFR cells
T1 sequence (P21462 1-350): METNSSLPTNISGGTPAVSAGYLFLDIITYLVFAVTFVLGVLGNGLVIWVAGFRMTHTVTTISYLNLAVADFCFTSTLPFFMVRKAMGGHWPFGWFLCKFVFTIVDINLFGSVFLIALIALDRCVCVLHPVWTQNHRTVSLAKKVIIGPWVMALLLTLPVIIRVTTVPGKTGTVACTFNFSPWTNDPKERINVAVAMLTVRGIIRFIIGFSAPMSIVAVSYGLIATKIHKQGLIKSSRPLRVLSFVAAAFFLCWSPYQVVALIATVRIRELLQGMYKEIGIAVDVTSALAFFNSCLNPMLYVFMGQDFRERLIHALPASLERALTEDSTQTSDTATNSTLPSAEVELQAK
Method: Cell-associated fluorescence was measured using a fluorescence plate reader. The results are depicted in FIG. 3. […] To evaluate the effect of RI-3 on agonist-dependent FPR1 internalization, binding experiments were performed at 37° C. and cells were visualized using a Zeiss 510 Meta LSM microscope. Original magnifications: 630×. Scale bar: 10 μm.

Compound: CC(=O)N[C@H](Cc1ccc(O)cc1)C(=O)N[C@H](CCCNC(=N)N)C(=O)NC(C)(C)C(=O)N[C@H](CCCNC(=N)N)C(N)=O [RI-3, Ac-(D)-Tyr-(D)-Arg-Aib-(D)-Arg-NH2] (Ac-[dY][dR][Aib][dR]-NH2)
- reduction of matrigel invasion [1]: ~53%
- inhibition of the capability to disrupt endothelial monolayers (melanoma A375 [2]): 22%
- reduction of matrigel invasion (melanoma A375 [3]): ~64%
- reduction of matrigel invasion [4]: ~57%
- inhibition of the capability to disrupt endothelial monolayers [5]: 17%
- inhibition of the capability to disrupt endothelial monolayers (ovarian carcinoma SKOV-3): 58%
- reduction of matrigel invasion [6]: ~68%
- inhibition of the capability to disrupt endothelial monolayers (THP1 monocytes): 36%
- reduction of the extent of FBS-directed cell migration (HT1080 cells): 65%
- agonist-dependent FPR1 internalization (FPR1): prevented agonist-dependent FPR1 internalization
